One may read the IC50 as the midpoint of a concentration-inhibition curve.

The target in experiment [1] is T1, human transporter OAT3 (Homo sapiens, UniProt Q8TCC7).
T1 construct: expressed in transfected cells; host or cells: MDCK-II
T1 sequence (Q8TCC7 1-542): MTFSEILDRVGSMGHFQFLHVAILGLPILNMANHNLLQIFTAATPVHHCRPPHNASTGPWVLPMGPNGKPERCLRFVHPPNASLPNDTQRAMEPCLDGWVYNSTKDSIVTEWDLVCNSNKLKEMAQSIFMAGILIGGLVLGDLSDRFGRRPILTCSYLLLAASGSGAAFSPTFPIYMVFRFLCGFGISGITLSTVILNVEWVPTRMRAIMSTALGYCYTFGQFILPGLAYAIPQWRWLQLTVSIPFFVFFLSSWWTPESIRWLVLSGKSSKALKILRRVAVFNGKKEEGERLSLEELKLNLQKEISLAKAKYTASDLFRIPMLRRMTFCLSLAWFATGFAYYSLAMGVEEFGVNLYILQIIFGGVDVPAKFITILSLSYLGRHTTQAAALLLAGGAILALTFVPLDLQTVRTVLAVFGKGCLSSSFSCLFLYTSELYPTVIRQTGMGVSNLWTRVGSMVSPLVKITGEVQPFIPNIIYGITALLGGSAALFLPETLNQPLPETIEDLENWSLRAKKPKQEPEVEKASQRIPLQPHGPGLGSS
In words: In vitro ion transport assay 1, OAT3-mediated uptake in MDCK-II cells. Type of experiment: cell-based. The procedure: To determine the effect of the ion transporter inhibitors on the uptake activity of solute carrier (SLC) ion transporter proteins such as OAT1 and OAT3, an ion transport assay utilizing a polarized monolayer of MDCK-II cells grown on permeable supports was used. The MDCK-II cells were treated to express the transporter of interest (e.g., OAT3 or OAT 1) or were treated with a control vector. 96-well culture plates with both donor and receiver cells containing a monolayer of MDCK-II cells were maintained at 37° C. in 5% CO2 atmosphere. Radio-labeled para-aminohippurate ([3H]-PAH) was used as a substrate for measuring OAT1 and OAT3 mediated transport, where the transport of the substrate was determined by radiometric detection. OAT1-mediated transport was assayed using 2 μM of [3H]-PAH; OAT3-mediated transport was assayed using 10 μM of [3H]-PAH. The probe substrate for OAT1 was 2 μM [3H]-p-aminohippurate. The probe substrate for OAT3 was 10 μM [3H]p-aminohippurate. The reference inhibitor for both assays was 100 μM probenecid. Following pre incubation of the transfected MDCK-II cells in HBSS, [3H]-PAH was added at the concentrations described above. Wells were then treated with either reference inhibitor probeneic acid or with the test compound. Cells transfected with empty vector served as an additional control. […]

Experiment [2] deals with T1, human transporter OAT3. In words: Further OAT3 uptake inhibition assay (Table 2). Type of experiment: cell-based. Particulars: compound 0.03-10 μM. The procedure:
In a further assay, the effects of several other compounds (including compounds 2, 3, and 4) were assessed against OAT3. The assay was carried out using a similar procedure as described above, using para-aminohippurate (PAH) and estrone-3-sulfate (E3S) as the substrates for measuring OAT3-mediated transport. […] MDCK-II cells were grown in 96-well cell culture plates, and the cell plates are maintained at 37° C. in 5% CO2 atmosphere prior to initiation of the transport experiment. MDCK-II cells were maintained in DMEM with low glucose and 10% FBS. Cells passages up to 40 are seeded at 60K±10K cells/well on 96-well, transwell membrane plates approximately 24 hours before transfection. Transport assays were carried out approximately 48 hours after transfection. Radio-labeled para-aminohippurate ([3H]-PAH) and estrone-3-sulfate (E3S) were used as substrates for measuring OAT3-mediated transport, where the transport of the substrate was determined by radiometric detection. Probenecid was used as a reference inhibitor. Transport study samples were run in triplicate.
For uptake assays, the net transporter-mediated uptake rate (V) of the substrate by each SLC transporter was calculated as follows:
Transporter-mediated uptake rate(pmol/min/cm^2)=((Cellular accumulation in cells expressing the transporter)−(Mean cellular accumulation in control cells))/Incubation time.
Percent inhibition was calculated by dividing the transporter-mediated uptake rate in presence of the test article or the reference inhibitor by the transporter-mediated uptake rate in presence of vehicle control:
Percent inhibition=100−(100×(transporter-mediated uptake rate)with inhibitor/(transporter-mediated uptake rate)vehicle control)
For uptake assays, statistical analyses using an unpaired t test was performed between transporter-mediated uptake rate or ATP-dependent transport rate of probe substrate with vehicle control and the inhibitor. A p value of <0.05 was considered statistically significant.
Table 2 summarizes the inhibitory activity of these compounds against OAT3 in the uptake of probe substrate PAH (p-aminohippurate) or E3S (estrone-3-sulfate). The percent inhibition values were determined by testing compounds at a single concentration of 1 μM with a PAH concentration of 10 μM. Data represent the mean and standard deviation of triplicate samples. The IC50 values were calculated by means of a concentration response curve with a compound concentration range of 0.03-10 μM and a probe substrate concentration of 10 μM PAH or 0.1 μM E3S. The percent inhibition at the various concentrations was run in triplicate and the IC50 value was determined by non-linear regression using GraphPad Prism.

The test system of experiment [3] is L61 ASYN transgenic mice. Put plainly: Grip strength, L61 ASYN transgenic mice, 3 month study. Format: in vivo. Particulars: 5 mg/kg and 10 mg/kg i.p. daily, after 70 days of treatment. As to the method:
The effects of Compound 1 on the motor performance deficits (grip strength) and a marker of neuroinflammation (Translocator Protein (18 kDa)) were assessed in both L61 ASYN transgenic and non-transgenic mice in a 3 month administration study.
Briefly, Compound 1 was injected into L61 ASYN transgenic mice and non-transgenic control mice (i.p., once daily) at doses of 5 and 10 mg/kg for 3 months (79 total mice, n=14-17 mice per treatment group). The vehicle control consisted of a solution containing 5% DMSO+20% Cremphor EL+0.9% normal saline. The baseline grip strength of mice was evaluated prior to starting treatments for the 3 month study, and then re-evaluated following 70 days of treatment with vehicle or Compound 1 (5 or 10 mg/kg, i.p. injection daily).

The target of experiment [4] is T1, human transporter OAT3. In words: In vitro transport assay 2, OAT3. Type of experiment: cell-based. The procedure: Compound 1 was studied in the concentration range of 0.1-10 μM for its potency against transport mediated by various transporter proteins.

Where “and” joins values, the source holds several entries; their conditions need not be identical. Equal entries are not always repeated.

Take `O=S(=O)(c1ccc(-n2cn[nH]c2=S)cc1)c1ccc(Cl)c(C(F)(F)F)c1` [Compound 1, 4-(4-((4-chloro-3-(trifluoromethyl)phenyl)sulfonyl)phenyl)-2,4-dihydro-3H-1,2,4-triazole-3-thione]: the “potency against OAT3 compared with potency against OAT1” value in experiment [1] (OAT3 vs OAT1, [3H]-PAH uptake) was “about 20 fold”. In addition, the IC50 was 0.62 µM and 0.622 µM in experiment [1] (assay 1, probe substrate 10 μM [3H]-p-aminohippurate, MDCK-II cells); 0.891 µM in experiment [2] (0.1 μM E3S, read-out: OAT3 inhibition substrate = E3S (IC50)); 0.252 µM in experiment [2] (10 μM PAH, read-out: OAT3 inhibition substrate = PAH (IC50)); 0.891 µM in experiment [4] (100 nM [3H]-estrone-3-sulfate, read-out: IC50, OAT3 (Substrate: E3S)); 0.252 µM in experiment [4] (10 μM [3H]-p-aminohippurate, read-out: IC50, OAT3 (Substrate: PAH)). The “grip strength vs vehicle-treated transgenic mice” value in experiment [3] is on record as “higher grip strengths”.
